Measurements: the supplement of paper PMC10307832

What was measured:
Assay in all cases: relative viability (nuclei count vs DMSO), 5 days (fraction); higher = more cells survive
[1] = test system: HOP-62
Procedure, shortened: (§1)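 Lung cancer cell lines were seeded in 1536-well plates and dosed by pin tool the next day, with either a single drug or a fixed anchor-drug dose combined with five library-drug doses (not always all listed) spaced in √10 steps. Five days later, one step fixed the cells and stained their nuclei (final 0.05% Triton X-100, 1% formaldehyde, 1 ug/ml Hoechst), and nuclei were counted on 4× images. Relative viability is the nuclei count in treated wells divided by the count in vehicle wells, and each value is the median of duplicate plates.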

[2] = test system: NCI-H322M
Procedure, shortened: as §1

[3] = test system: NCI-H1755
Procedure, shortened: as §1

[4] = test system: NCI-H1993
Procedure, shortened: as §1

[5] = test system: PC-14
Procedure, shortened: as §1

[6] = test system: NCI-H358
Procedure, shortened: as §1

[7] = test system: NCI-H2170
Procedure, shortened: as §1

[8] = test system: NCI-H1355
Procedure, shortened: as §1

[9] = test system: NCI-H2228
Procedure, shortened: as §1

[10] = test system: SK-MES-1
Procedure, shortened: as §1

[11] = test system: HARA
Procedure, shortened: as §1

[12] = test system: NCI-H838
Procedure, shortened: as §1

[13] = test system: NCI-H2342
Procedure, shortened: as §1

[14] = test system: NCI-H2347
Procedure, shortened: as §1

[15] = test system: NCI-H1734
Procedure, shortened: as §1

[16] = test system: COR-L23
Procedure, shortened: as §1

[17] = test system: NCI-H522
Procedure, shortened: as §1

[18] = test system: NCI-H647
Procedure, shortened: as §1

[19] = test system: NCI-H2009
Procedure, shortened: as §1

[20] = test system: NCI-H1793
Procedure, shortened: as §1

[21] = test system: NCI-H1395
Procedure, shortened: as §1

[22] = test system: COR-L 105
Procedure, shortened: as §1

[23] = test system: EKVX
Procedure, shortened: as §1

[24] = test system: UMC-11
Procedure, shortened: as §1

C[C@@H]1CN(CC(=O)Nc2ccc3c(c2)Cc2cccc(-c4cc(=O)cc(N5CCOCC5)o4)c2S3)C[C@H](C)O1 + O=C(CCCCCCC(=O)Nc1ccccc1)NO [Vorinostat] (partner 1 µM)
relative viability ([1]; first compound 0.04 µM): 0.477 | relative viability ([1]; first compound 0.1265 µM): 0.648 | relative viability ([1]; first compound 0.4 µM): 0.687 | relative viability ([1]; first compound 4 µM): 0.509 | relative viability ([2]; first compound 0.04 µM): 0.883 | relative viability ([2]; first compound 0.1265 µM): 0.847 | relative viability ([2]; first compound 0.4 µM): 0.902 | relative viability ([2]; first compound 4 µM): 0.776 | relative viability ([3]; first compound 0.04 µM): 0.759 | relative viability ([3]; first compound 0.1265 µM): 0.854 | relative viability ([3]; first compound 0.4 µM): 0.729 | relative viability ([3]; first compound 4 µM): 0.87 | relative viability ([4]; first compound 0.04 µM): 0.911 | relative viability ([4]; first compound 0.1265 µM): 0.78 | relative viability ([4]; first compound 0.4 µM): 0.626 | relative viability ([4]; first compound 4 µM): 0.735 | relative viability ([5]; first compound 0.04 µM): 0.75 | relative viability ([5]; first compound 0.1265 µM): 0.689 | relative viability ([5]; first compound 0.4 µM): 0.705 | relative viability ([5]; first compound 4 µM): 0.61 | relative viability ([6]; first compound 0.04 µM): 0.724 | relative viability ([6]; first compound 0.1265 µM): 0.589 | relative viability ([6]; first compound 0.4 µM): 0.687 | relative viability ([6]; first compound 4 µM): 0.261 | relative viability ([7]; first compound 0.04 µM): 0.857 | relative viability ([7]; first compound 0.1265 µM): 0.811 | relative viability ([7]; first compound 0.4 µM): 0.798 | relative viability ([7]; first compound 4 µM): 0.742 | relative viability ([8]; first compound 0.04 µM): 0.552 | relative viability ([8]; first compound 0.1265 µM): 0.713 | relative viability ([8]; first compound 0.4 µM): 0.566 | relative viability ([8]; first compound 4 µM): 0.621 | relative viability ([9]; first compound 0.04 µM): 0.667 | relative viability ([9]; first compound 0.1265 µM): 0.589 | relative viability ([9]; first compound 0.4 µM): 0.852 | relative viability ([9]; first compound 4 µM): 0.569 | relative viability ([10]; first compound 0.04 µM): 1.19 | relative viability ([10]; first compound 0.1265 µM): 1.07 | relative viability ([10]; first compound 0.4 µM): 1.01 | relative viability ([10]; first compound 4 µM): 0.855 | relative viability ([11]; first compound 0.04 µM): 0.511 | relative viability ([11]; first compound 0.1265 µM): 0.61 | relative viability ([11]; first compound 0.4 µM): 0.445 | relative viability ([11]; first compound 4 µM): 0.436 | relative viability ([12]; first compound 0.04 µM): 0.751 | relative viability ([12]; first compound 0.1265 µM): 0.646 | relative viability ([12]; first compound 0.4 µM): 0.633 | relative viability ([12]; first compound 4 µM): 0.535 | relative viability ([13]; first compound 0.04 µM): 0.609 | relative viability ([13]; first compound 0.1265 µM): 0.652 | relative viability ([13]; first compound 0.4 µM): 0.668 | relative viability ([13]; first compound 4 µM): 0.703 | relative viability ([14]; first compound 0.04 µM): 0.564 | relative viability ([14]; first compound 0.1265 µM): 0.623 | relative viability ([14]; first compound 0.4 µM): 0.562 | relative viability ([14]; first compound 4 µM): 0.533 | relative viability ([15]; first compound 0.04 µM): 0.602 | relative viability ([15]; first compound 0.1265 µM): 0.768 | relative viability ([15]; first compound 0.4 µM): 0.812 | relative viability ([15]; first compound 4 µM): 0.901 | relative viability ([16]; first compound 0.04 µM): 0.433 | relative viability ([16]; first compound 0.1265 µM): 0.451 | relative viability ([16]; first compound 0.4 µM): 0.473 | relative viability ([16]; first compound 4 µM): 0.333 | relative viability ([17]; first compound 0.04 µM): 0.539 | relative viability ([17]; first compound 0.1265 µM): 0.696 | relative viability ([17]; first compound 0.4 µM): 0.876 | relative viability ([17]; first compound 4 µM): 0.766 | relative viability ([18]; first compound 0.04 µM): 0.547 | relative viability ([18]; first compound 0.1265 µM): 0.491 | relative viability ([18]; first compound 0.4 µM): 0.665 | relative viability ([18]; first compound 4 µM): 0.416 | relative viability ([19]; first compound 0.04 µM): 0.635 | relative viability ([19]; first compound 0.1265 µM): 0.772 | relative viability ([19]; first compound 0.4 µM): 0.664 | relative viability ([19]; first compound 4 µM): 0.497 | relative viability ([20]; first compound 0.04 µM): 0.847 | relative viability ([20]; first compound 0.1265 µM): 0.745 | relative viability ([20]; first compound 0.4 µM): 0.762 | relative viability ([20]; first compound 4 µM): 0.574 | relative viability ([21]; first compound 0.1265 µM): 0.631 | relative viability ([21]; first compound 0.4 µM): 0.597 | relative viability ([21]; first compound 4 µM): 0.812 | relative viability ([22]; first compound 0.04 µM): 0.799 | relative viability ([22]; first compound 0.1265 µM): 0.783 | relative viability ([22]; first compound 0.4 µM): 0.926 | relative viability ([22]; first compound 4 µM): 0.875 | relative viability ([23]; first compound 0.04 µM): 0.753 | relative viability ([23]; first compound 0.1265 µM): 0.666 | relative viability ([23]; first compound 0.4 µM): 0.696 | relative viability ([23]; first compound 4 µM): 0.661 | relative viability ([24]; first compound 0.04 µM): 0.378 | relative viability ([24]; first compound 0.1265 µM): 0.433 | relative viability ([24]; first compound 0.4 µM): 0.441 | relative viability ([24]; first compound 4 µM): 0.366
